Reference: the NIST ThermoML archive (doi:10.1021/je3011979)

Legend:
[1] = Liquid; for mass density: 101 kPa, Vibrating tube method; for vapor or sublimation pressure: Ebulliometric method (Recirculating still)
[2] = refractive index (Na D-line) (dimensionless); details: 101.33 kPa, Liquid, Standard Abbe refractometry
[3] = xn = mol fraction of the nth substance listed; details: 101 kPa, Liquid, Vibrating tube method
[4] = excess molar enthalpy (molar enthalpy of mixing); xn = mol fraction of the nth substance listed; details: 291.15 K, 101 kPa, Liquid, Calvet calorimetry

CCCCCCCCCC [decane]
Details | mass density, 291.15 K [kg/m3] | mass density, 298.15 K [kg/m3] | mass density, 318.15 K [kg/m3] | mass density, 328.15 K [kg/m3] | refractive index, 298.15 K | refractive index, 318.15 K | vapor or sublimation pressure, 447.27 K [kPa]
[1] | 731.2 | 726.2 | 710.9 | 703.3 | – | – | 101.32
[2] | – | – | – | – | 1.4096 | 1.4008 | –

CCCCCCCCCC [decane] + CCCOC(C)=O
[3], x2 = 0
Details | mass density [kg/m3]
291.15 K | 731.2
298.15 K | 726.2
318.15 K | 710.9
328.15 K | 703.3

CCCCCCC [heptane]
Details | mass density, 291.15 K [kg/m3] | mass density, 298.15 K [kg/m3] | mass density, 318.15 K [kg/m3] | mass density, 328.15 K [kg/m3] | refractive index, 298.15 K | refractive index, 318.15 K | vapor or sublimation pressure, 371.55 K [kPa]
[1] | 685.3 | 679.5 | 662.1 | 653.7 | – | – | 101.32
[2] | – | – | – | – | 1.3852 | 1.3748 | –

CCCCCCC [heptane] + CCCOC(C)=O
[3], x2 = 0
Details | mass density [kg/m3]
291.15 K | 685.3
298.15 K | 679.5
318.15 K | 662.1
328.15 K | 653.7

CCCCCC [hexane]
Details | mass density, 291.15 K [kg/m3] | mass density, 298.15 K [kg/m3] | mass density, 318.15 K [kg/m3] | mass density, 328.15 K [kg/m3] | refractive index, 298.15 K | refractive index, 318.15 K | vapor or sublimation pressure, 341.89 K [kPa]
[1] | 661.2 | 654.8 | 636.7 | 627.2 | – | – | 101.32
[2] | – | – | – | – | 1.3723 | 1.3615 | –

CCCCCC [hexane] + CCCOC(C)=O
[3], x2 = 0
Details | mass density [kg/m3]
291.15 K | 661.2
298.15 K | 654.8
318.15 K | 636.7
328.15 K | 627.2

CCCCCCCCC [nonane]
Details | mass density, 291.15 K [kg/m3] | mass density, 298.15 K [kg/m3] | mass density, 318.15 K [kg/m3] | mass density, 328.15 K [kg/m3] | refractive index, 298.15 K | refractive index, 318.15 K | vapor or sublimation pressure, 423.94 K [kPa]
[1] | 719.2 | 713.9 | 698.1 | 690.2 | – | – | 101.32
[2] | – | – | – | – | 1.4031 | 1.3938 | –

CCCCCCCCC [nonane] + CCCOC(C)=O
[3], x2 = 0
Details | mass density [kg/m3]
291.15 K | 719.2
298.15 K | 713.9
318.15 K | 698.1
328.15 K | 690.2

CCCCCCCC [octane]
Details | mass density, 291.15 K [kg/m3] | mass density, 298.15 K [kg/m3] | mass density, 318.15 K [kg/m3] | mass density, 328.15 K [kg/m3] | refractive index, 298.15 K | refractive index, 318.15 K | vapor or sublimation pressure, 398.85 K [kPa]
[1] | 704.1 | 698.6 | 682.2 | 674.1 | – | – | 101.32
[2] | – | – | – | – | 1.3952 | 1.3855 | –

CCCCCCCC [octane] + CCCOC(C)=O
[3], x2 = 0
Details | mass density [kg/m3]
291.15 K | 704.1
298.15 K | 698.6
318.15 K | 682.2
328.15 K | 674.1

CCCCC [pentane]
Details | mass density, 291.15 K [kg/m3] | mass density, 298.15 K [kg/m3] | refractive index, 298.15 K | vapor or sublimation pressure, 309.24 K [kPa]
[1] | 628.2 | 621.4 | – | 101.32
[2] | – | – | 1.3545 | –

CCCCC [pentane] + CCCOC(C)=O
mass density [kg/m3], [3]
Details | 291.15 K | 298.15 K
x2 = 0 | 628.2 | 621.4
x2 = 0.0101 | – | 623.7
x2 = 0.0121 | 631.2 | –
x2 = 0.0346 | – | 629.8
x2 = 0.0427 | 638.8 | –
x2 = 0.0754 | – | 640
x2 = 0.078 | 647.7 | –
x2 = 0.1377 | – | 655.9
x2 = 0.1417 | 664 | –
x2 = 0.1977 | – | 671.4
x2 = 0.2048 | 680.3 | –
x2 = 0.2734 | 698.2 | –
x2 = 0.283 | – | 693.6
x2 = 0.3338 | 714.1 | –
x2 = 0.3439 | – | 709.7
x2 = 0.3934 | 729.8 | –
x2 = 0.4072 | – | 726.4
x2 = 0.4636 | 748.4 | –
x2 = 0.4881 | – | 747.7
x2 = 0.5218 | – | 756.5
x2 = 0.5224 | 763.9 | –
x2 = 0.5876 | 781.1 | –
x2 = 0.5968 | – | 776.4
x2 = 0.6565 | 799.3 | 792.1
x2 = 0.7085 | – | 805.9
x2 = 0.7136 | 814.4 | –
x2 = 0.7697 | 829.2 | –
x2 = 0.8277 | 844.6 | –
x2 = 0.8437 | – | 841.6
x2 = 0.8911 | 861.3 | –
x2 = 0.9205 | – | 861.8
x2 = 0.923 | 869.7 | –

[4]
Details | excess molar enthalpy [kcal/mol]
x2 = 0.0667 | 0.0535
x2 = 0.1334 | 0.097
x2 = 0.2047 | 0.147
x2 = 0.2753 | 0.186
x2 = 0.3414 | 0.2185
x2 = 0.4028 | 0.2361
x2 = 0.461 | 0.2452
x2 = 0.5088 | 0.2464
x2 = 0.5257 | 0.245
x2 = 0.5824 | 0.2326
x2 = 0.6434 | 0.2141
x2 = 0.7089 | 0.188
x2 = 0.7812 | 0.152
x2 = 0.8537 | 0.107
x2 = 0.9242 | 0.0595

CCCOC(C)=O [propyl ethanoate]
Details | mass density [kg/m3] | refractive index | vapor or sublimation pressure [kPa]
[1], 291.15 K | 889.6 | – | –
[1], 298.15 K | 882.5 | – | –
[1], 318.15 K | 859.8 | – | –
[1], 318.35 K | – | – | 12.14
[1], 322.19 K | – | – | 14.43
[1], 325.87 K | – | – | 17.04
[1], 328.15 K | 848.3 | – | –
[1], 328.95 K | – | – | 19.43
[1], 331.59 K | – | – | 21.77
[1], 334.22 K | – | – | 24.29
[1], 336.6 K | – | – | 26.79
[1], 338.75 K | – | – | 29.12
[1], 340.72 K | – | – | 31.53
[1], 342.66 K | – | – | 33.96
[1], 344.52 K | – | – | 36.46
[1], 346.15 K | – | – | 38.78
[1], 347.73 K | – | – | 41.14
[1], 349.35 K | – | – | 43.69
[1], 350.81 K | – | – | 46.08
[1], 352.19 K | – | – | 48.41
[1], 353.57 K | – | – | 50.84
[1], 354.78 K | – | – | 53.11
[1], 356.03 K | – | – | 55.48
[1], 357.29 K | – | – | 57.96
[1], 358.41 K | – | – | 60.24
[1], 359.52 K | – | – | 62.59
[1], 360.63 K | – | – | 65
[1], 361.71 K | – | – | 67.41
[1], 362.73 K | – | – | 69.74
[1], 363.81 K | – | – | 72.28
[1], 364.84 K | – | – | 74.8
[1], 365.86 K | – | – | 77.35
[1], 366.81 K | – | – | 79.8
[1], 367.7 K | – | – | 82.11
[1], 368.62 K | – | – | 84.58
[1], 369.51 K | – | – | 87.01
[1], 370.41 K | – | – | 89.57
[1], 371.18 K | – | – | 91.8
[1], 371.99 K | – | – | 94.17
[1], 372.78 K | – | – | 96.55
[1], 373.55 K | – | – | 98.87
[1], 373.97 K | – | – | 100.18
[1], 374.34 K | – | – | 101.32
[1], 374.52 K | – | – | 101.32
[1], 375.1 K | – | – | 103.76
[1], 375.78 K | – | – | 106.19
[1], 376.51 K | – | – | 108.56
[1], 377.29 K | – | – | 111.14
[1], 377.98 K | – | – | 113.47
[1], 378.69 K | – | – | 115.96
[1], 379.36 K | – | – | 118.3
[1], 380.04 K | – | – | 120.71
[1], 380.74 K | – | – | 123.19
[1], 381.41 K | – | – | 125.61
[1], 382.06 K | – | – | 128.01
[1], 382.71 K | – | – | 130.42
[1], 383.34 K | – | – | 132.85
[1], 384.01 K | – | – | 135.42
[1], 384.55 K | – | – | 137.67
[1], 385.18 K | – | – | 140.04
[1], 385.79 K | – | – | 142.47
[1], 386.36 K | – | – | 144.8
[1], 386.9 K | – | – | 147.09
[1], 387.49 K | – | – | 149.51
[1], 388.06 K | – | – | 151.96
[1], 388.63 K | – | – | 154.37
[1], 389.16 K | – | – | 156.68
[1], 389.68 K | – | – | 158.99
[1], 390.18 K | – | – | 161.23
[1], 390.68 K | – | – | 163.46
[1], 391.22 K | – | – | 165.89
[1], 391.7 K | – | – | 168.13
[1], 392.24 K | – | – | 170.62
[1], 392.73 K | – | – | 172.98
[1], 393.23 K | – | – | 175.35
[1], 393.71 K | – | – | 177.64
[1], 394.16 K | – | – | 180.01
[1], 394.66 K | – | – | 182.44
[1], 395.17 K | – | – | 185.03
[1], 395.67 K | – | – | 187.59
[1], 396.16 K | – | – | 190.1
[1], 396.69 K | – | – | 192.76
[2], 298.15 K | – | 1.3818 | –
[2], 318.15 K | – | 1.372 | –

CCCOC(C)=O [propyl ethanoate] + CCCCC
[3], x1 = 1
Details | mass density [kg/m3]
291.15 K | 889.6
298.15 K | 882.5
